Results as given in the supplement of paper PMC5908809.

Assays:
[1] = system: normal NK cells expanded with K562-aAPC; assay: percent inhibition of viability; higher = more inhibition; conditions: 72 h, IL-2 2.5 ng/mL
Protocol: (§1)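 Drug sensitivity and resistance testing on K562-aAPC-expanded normal NK cells: 5 concentrations (10-fold steps over a 10,000-fold range), 72 h at 37 °C, viability by CellTiter-Glo normalised to DMSO and benzethonium chloride controls; DSS from the fitted curve.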

[2] = system: normal NK cells expanded with K562-aAPC; assay: drug sensitivity score (DSS) (DSS units); higher = more sensitive; extreme values may be limits of the assay; conditions: 72 h; IL-2 2.5 ng/mL
Protocol: as §1

[3] = system: normal primary NK cells, pool 2 (3 donors) (IL-2 2.5 ng/mL); assay: percent inhibition of viability; higher = more inhibition; conditions: 72 h
[4] = system: KHYG-1 (IL-2 2.5 ng/mL); assay: as above; conditions: 72 h
[5] = system: NKL (IL-2 2.5 ng/mL); assay: as above; conditions: 72 h
[6] = system: NK-92 (IL-2 2.5 ng/mL); assay: as above; conditions: 72 h
[7] = system: DERL-7 (IL-2 2.5 ng/mL); assay: as above; conditions: 72 h
[8] = system: normal primary NK cells, pool 1 (3 donors) (IL-2 2.5 ng/mL); assay: as above; conditions: 72 h
[9] = system: YT (IL-2 2.5 ng/mL); assay: as above; conditions: 72 h
[10] = system: IMC-1 (IL-2 20 ng/mL); assay: as above; conditions: 72 h
[11] = system: SNK-6 (IL-2 2.5 ng/mL); assay: as above; conditions: 72 h
[12] = system: KAI3 (IL-2 2.5 ng/mL); assay: as above; conditions: 72 h
[13] = system: normal primary NK cells, pool 1 (3 donors), resting (IL-2 0 ng/mL); assay: as above; conditions: 72 h
[14] = system: normal primary NK cells, pool 3 (3 donors) (IL-2 2.5 ng/mL); assay: as above; conditions: 72 h
[15] = system: NK-YS (IL-2 2.5 ng/mL); assay: as above; conditions: 72 h
[16] = system: normal primary NK cells, pool 2 (3 donors) (IL-2 2.5 ng/mL); assay: drug sensitivity score (DSS) (DSS units); higher = more sensitive; extreme values may be limits of the assay; conditions: 72 h
[17] = system: KHYG-1 (IL-2 2.5 ng/mL); assay: as above; conditions: 72 h
[18] = system: NKL (IL-2 2.5 ng/mL); assay: as above; conditions: 72 h
[19] = system: NK-92 (IL-2 2.5 ng/mL); assay: as above; conditions: 72 h
[20] = system: DERL-7 (IL-2 2.5 ng/mL); assay: as above; conditions: 72 h
[21] = system: normal primary NK cells, pool 1 (3 donors) (IL-2 2.5 ng/mL); assay: as above; conditions: 72 h
[22] = system: YT (IL-2 2.5 ng/mL); assay: as above; conditions: 72 h
[23] = system: IMC-1 (IL-2 20 ng/mL); assay: as above; conditions: 72 h
[24] = system: SNK-6 (IL-2 2.5 ng/mL); assay: as above; conditions: 72 h
[25] = system: KAI3 (IL-2 2.5 ng/mL); assay: as above; conditions: 72 h
[26] = system: normal primary NK cells, pool 1 (3 donors), resting (IL-2 0 ng/mL); assay: as above; conditions: 72 h
[27] = system: normal primary NK cells, pool 3 (3 donors) (IL-2 2.5 ng/mL); assay: as above; conditions: 72 h
[28] = system: NK-YS (IL-2 2.5 ng/mL); assay: as above; conditions: 72 h

CN1CCN(CCOc2cc(OC3CCOCC3)c3c(Nc4c(Cl)ccc5c4OCO5)ncnc3c2)CC1 [Saracatinib] (max concentration tested 10000 nM)
percent inhibition of viability [%]
Conditions | 1 nM | 10 nM | 100 nM | 1000 nM | 10000 nM
[1] | -1.72 | -3.19 | 2.46 | 6.91 | 94.3
[3] | -0.71 | -2.6 | 6.1 | -10.6 | 9.82
[4] | -5.13 | -8 | -4.22 | 0.25 | 77.8
[5] | -14.8 | -18.5 | -9.99 | -5.02 | 48.9
[6] | -2.32 | 4.14 | 9.55 | 18.4 | 68.4
[7] | -0.15 | 1.98 | 7.09 | 17.7 | 74.7
[8] | -9.24 | 11.2 | 7.65 | -4.55 | 45.9
[9] | -2.96 | -2.67 | -0.94 | 26.4 | 68.2
[10] | -4.77 | -2.25 | -2.36 | -0.89 | 100
[11] | -3.28 | -15.1 | -18 | -41.3 | 21.7
[12] | -1.92 | -9.84 | -6.46 | 7.42 | 56.8
[13] | -9.8 | 15.2 | 16.2 | 24 | 85.8
[14] | -6.07 | 9.22 | 9.63 | -17.2 | 0.69
[15] | -1.8 | -3.94 | -0.18 | 5.62 | 51.1

Conditions | drug sensitivity score
[2] | 6.3
[16] | 0
[17] | 4.35
[18] | 2.2
[19] | 6.22
[20] | 6.92
[21] | 2.04
[22] | 7.37
[23] | 5.54
[24] | 0.27
[25] | 4.31
[26] | 7.66
[27] | 0
[28] | 3.64

Cn1nnc2c(C(N)=O)ncn2c1=O [Temozolomide] (max concentration tested 100000 nM)
percent inhibition of viability [%]
Conditions | 10 nM | 100 nM | 1000 nM | 10000 nM | 100000 nM
[1] | 0.11 | -2.44 | 4.25 | 0.95 | 10.9
[3] | -14.2 | -9.61 | -8.15 | 11.5 | 10
[4] | -3.41 | -4.13 | 0.86 | 0.71 | 8.74
[5] | -9.55 | -19.8 | -10.2 | 4.85 | 65.2
[6] | -7.14 | -7.33 | -5.28 | 7.55 | 32.4
[7] | -3.81 | 2.52 | -0.21 | 4.75 | -1.49
[8] | -7.39 | 2.46 | -6.83 | -0.09 | 5.41
[9] | -4.31 | -3.78 | -0.54 | -3.29 | 0.79
[10] | 1.34 | -6.01 | 5.36 | 17.9 | 74.4
[11] | -0.07 | 8.23 | 35.2 | 72.8 | 88.5
[12] | -11.8 | -10.3 | -9.47 | -11.7 | 12.9
[13] | -13.7 | -5.7 | -14.4 | -9.04 | -7.4
[14] | -14.7 | -11.8 | -7.32 | 6.58 | 17.2
[15] | -2.59 | -6.14 | 2.38 | 3.13 | 22.3

Conditions | drug sensitivity score
[2] | 0.02
[16] | 0.32
[17] | 0
[18] | 4.31
[19] | 2.63
[20] | 0
[21] | 0
[22] | 0
[23] | 6.93
[24] | 18
[25] | 0.01
[26] | 0
[27] | 1.03
[28] | 1.21
